Patent US20130309218A1, “PROCESS FOR PRODUCING AQUEOUS SOLUTION CONTAINING FAT-SOLUBLE SUBSTANCE” (WACKER CHEMIE AG, priority 2011, published 2013)
Values belong to the molecule of their own block, whether it stands above or below them.

Experiments:
Type in all cases: physicochemical
[1] = H-1: solubility of CAPE with NaTC (HPLC); details: 1.4 mg CAPE (as complex or alone) in 5 mL water, sonicated 3 minutes
Experimental: As a comparison, water or a solution prepared by dissolving a super solubilizer (1.0% (w/v) NaTC) in water was combined with 1.4 mg of CAPE (in lieu of CAPE-γCD complex) and the mixture was prepared as described above. The resulting mixture was left to stand and filtered and the resulting solution was analyzed using HPLC.

[2] = B-1: solubility of CoQ10 with NaTC (HPLC); details: 50 mM MES buffer, 2 hours at 40° C.
Experimental: 1450 μL each of a 50 mM 2-morpholinoethanesulfonic acid (MES) buffer solution (containing 300 mM NaCl, 140 mM KSCN and 5 mM CaCl2) or the aforementioned buffer solution into which a super solubilizer (0.42% (w/v) NaTC, 0.83% (w/v) NaTC or 1.66% (w/v) NaTC) was dissolved were added to 57 mg of CAVAMAX® W8 CoQ10 (5 mg water content, 12.14 mg CoQ10 and 40 mg γCD) and sonication was performed for several seconds using an ultrasonic apparatus (Ikeda Scientific Co., Ltd.) and left to stand for 2 hours at 40° C.
As a comparison, 2 mL of 50 mM 2-morpholinoethanesulfonic acid (MES) buffer solution (containing 300 mM NaCl, 140 mM KSCN and 5 mM CaCl2) (in lieu of NaTC) was added to 12.14 mg of CoQ10 (in lieu of CAVAMAX® W8 CoQ10), and the mixture was prepared as described above. The resulting mixture was left to stand and filtered and the resulting solution was analyzed using HPLC.

[3] = B-2: solubility of CoQ10 with GZK2 (HPLC); details: 12 mg CoQ10 (as complex or alone) in 3 mL purified water, sonicated 1 hour
Experimental: 0 mg, 6.2 mg, 12.5 mg, 25 mg or 50 mg of GZK2 was mixed into 60 mg of CAVAMAX® W8 CoQ10 (containing 12 mg of CoQ10) as a super solubilizer and 3 mL purified water was added. The resulting mixture was then sonicated for 1 hour using an ultrasonic apparatus (Ikeda Scientific Co., Ltd.).
As a comparison, GZK2 was incorporated into 12 mg of CoQ10 as a super solubilizer and the mixture was prepared as described above. The resulting mixture was left to stand and filtered and the resulting solution was analyzed using HPLC.

[4] = A-6: solubility of curcumin with methylcellulose (HPLC); details: Super Solubilizer: None (comparison); 1.4 mg curcumin in 2 mL ion-exchanged water
Experimental: This mixture was then mixed by inversion.
(§1) The resulting mixture was left to stand and filtered and the resulting solution was analyzed using HPLC.

[5] = Follow-up HPLC measurement of curcumin concentration in αCD aqueous solution comparable to Patent Document 2, Table 4
Experimental: Additionally, given that the maximum value of the concentration of the standard solution which was used as a reference was 100 μg/mL (Patent Document 2, Table 3), the concentration is outside the measurement range of the standard and is likely unreliable.

[6] = A-2: solubility of curcumin with GZ (HPLC); details: 50 mM MES buffer, 2 hours at 40° C.
[7] = A-4: solubility of curcumin with quillaja saponin (HPLC); details: total 2 mL 10% aqueous ethanol, 1 hour at 40° C.
Experimental: The mixture was then allowed to stand, was filtered and the resulting solution was analyzed using HPLC.

[8] = A-5: solubility of curcumin with polysorbate (HPLC); details: Super Solubilizer: None (comparison); 1.4 mg curcumin in 2 mL ion-exchanged water
Experimental: This mixture was then sonicated for several seconds using an ultrasonic apparatus (Ikeda Scientific Co., Ltd.) and left to stand for 10 min at 40° C.
as §1

[9] = A-8: solubility of curcumin with Na glycocholate (HPLC); details: Amount of Na Glycocholate Added 2.0% (w/v); 2 mL water; filtered immediately following mixing
[10] = A-1 Preparation Method 1: solubility of curcumin with NaTC (HPLC); details: 50 mM MES buffer, sonicated, 2 hours at 40° C., 0.2 μm filter
Experimental: The mixture was then filtered and the solution obtained was analyzed via HPLC as described above.

CAPE Concentration ([1]; NaTC concentration 0% (w/v)): 16 µg/mL
CAPE Concentration ([1]; NaTC concentration 1.0% (w/v)): 155 µg/mL
SMILES: O=C(/C=C/c1ccc(O)c(O)c1)OCCc1ccccc1 [CAPE, caffeic acid phenethyl ester]

CoQ10 Concentration ([2]; NaTC concentration 0% (w/v)): 0 µg/mL
CoQ10 Concentration ([2]; NaTC concentration 0.42% (w/v)): 0 µg/mL
CoQ10 Concentration ([2]; NaTC concentration 0.83% (w/v)): 0 µg/mL
CoQ10 Concentration ([2]; NaTC concentration 1.66% (w/v)): 1.52 µg/mL
CoQ10 Concentration ([3]; Amount of GZK2 Added 0 mg): 0.2 µg/mL
CoQ10 Concentration ([3]; Amount of GZK2 Added 6.2 mg): 3.6 µg/mL
CoQ10 Concentration ([3]; Amount of GZK2 Added 12.5 mg): 9.1 µg/mL
CoQ10 Concentration ([3]; Amount of GZK2 Added 25 mg): 3.9 µg/mL
CoQ10 Concentration ([3]; Amount of GZK2 Added 50 mg): 3.9 µg/mL
SMILES: COC1=C(OC)C(=O)C(C/C=C(\C)CC/C=C(\C)CC/C=C(\C)CC/C=C(\C)CC/C=C(\C)CC/C=C(\C)CC/C=C(\C)CC/C=C(\C)CC/C=C(\C)CCC=C(C)C)=C(C)C1=O [CoQ10, coenzyme Q10]

Curcumin Concentration [4]: 0.01 µg/mL
concentration of curcumin ([5]; content of αCD 1%): 1470 ng/mL
concentration of curcumin ([5]; content of αCD 2.5%): 3630 ng/mL
concentration of curcumin ([5]; content of αCD 5%): 8290 ng/mL
Curcumin Concentration ([6]; GZ Concentration 0% (w/v)): 3.95 µg/mL
Curcumin Concentration ([6]; GZ Concentration 3.50% (w/v)): 98.19 µg/mL
Curcumin Concentration ([7]; Amount of QS Added 0 μL): 0.02 µg/mL
Curcumin Concentration ([7]; Amount of QS Added 200 μL): 16.81 µg/mL
Curcumin Concentration ([7]; Amount of QS Added 1000 μL): 122.96 µg/mL
Curcumin Concentration [8]: 0.01 µg/mL
Curcumin Concentration [9]: 12.31 µg/mL
Curcumin Concentration ([10]; NaTC concentration 0% (w/v)): 3.95 µg/mL
Curcumin Concentration ([10]; NaTC concentration 0.83% (w/v)): 35.35 µg/mL
Curcumin Concentration ([10]; NaTC concentration 1.66% (w/v)): 219.2 µg/mL
SMILES: COc1cc(/C=C/C(=O)CC(=O)/C=C/c2ccc(O)c(OC)c2)ccc1O [Curcumin, curcumin]
